Where two headings read alike, the source gives them in different places. Where a SMILES comes first, the peptide text is derived from it.
How the values were obtained:
Format in all cases: cell-based
[1] = tested on: recombinant IgG producing Chinese Hamster Ovary cell line (CHO cell line #1); assay: 24-well plate media supplement screening: peak viable cell density (CellTiter 96 AQueous)
Experimental: (§1) 24-well plates were utilized at a working volume of 1.5 mL per well to serve as the platform for media supplement screening. An in-house, base chemically defined media (CDM #1) was used as the basal media for the purposes of the experiments. A recombinant IgG producing Chinese Hamster Ovary cell line (CHO cell line #1) was used for the media supplement screening phase of the experiments.
All 24-well plate screening experiments were designed using JMP7 commercially available statistics software (Cary, N.C.) using custom experimental options. Six individual media supplement screening experiments were performed to test over a hundred different supplements in statistically designed experiments and in a serial fashion. All screening experiments were performed at […] cultured at 210 rpm on a shaker table in a 5% humidified CO2 incubator. Gas permeable, rayon film plate covers (VWR International, Radnor, Pa., Catalog #60941-086) were employed as necessary to provide a sterile barrier between the well plates, the plastic plate cover, and the culture atmosphere. Supplement solutions were manually pipetted into the respective plate wells using concentrated, sterile stock solutions. The comprehensive list of media supplements evaluated for cell culture process improvement is shown below in Table 2:
(§2) Two cell culture performance indicators were measured in the high-throughput screening experiments: peak viable cell density and harvest titer. Time point samples were withdrawn from each of the respective plate wells on Days 6, 7, and 8 post inoculation and measured for their respective viable cell densities spectrophotometrically via the CellTiter 96 AQueous Solution Cell Proliferation Assay Kits™ (Promega, Madison, Wis.). Harvest Titer measurements were conducted via high performance liquid chromatography (HPLC) with a Poros A™ affinity column (Applied Biosystems, Foster City, Calif.). All experimental wells supplemented with a particular combination of media compounds were compared to an unsupplemented control, with the results expressed as relative values relative to the control.
(§3) Two cell culture performance indicators were measured in the high-throughput screening experiments as well as media verification experiments; peak viable cell density (VCD) and harvest titer. […] A few days after the last cell count measurement sample the plates were centrifuged and the supernatant was collected and stored at −80° C. for future analysis. Harvest titer measurements were conducted via high performance liquid chromatography (HPLC) with a Poros A™ affinity column (Applied Biosystems, Foster City, Calif.). All experimental wells supplemented with a particular combination of media compounds were compared to an unsupplemented control, with the results expressed as values relative to the control. For the media verification experiments in larger-scale shaker and spinner flasks, viable cell density and viability were measured via Cedex automated cell counters (Roche Applied Science, Indianapolis, Ind.). Harvest titer measurements were similarly measured via HPLC.
(§4) Standard Analysis of Variance (ANOVA) was used to measure the significance of individual supplements and their respective interactions towards the resulting cell culture technique performance. Individual analyses were conducted on both peak viable cell density and harvest titer for each of the respective screening experiments. Three different levels of each media supplement were used in these experiments: unsupplemented (Level 1), lightly supplemented (Level 2), and heavily supplemented (Level 3). […] The optimization subroutine intrinsic to the statistics software was used to analyze the screening dataset determine the identity of a high performance media blend. It is important to note that the selection method is a mathematical exercise which can lead to multiple blends identified as having the highest performance parameters, and the results are highly dependent on the initial first guess.

[2] = tested on: recombinant IgG producing Chinese Hamster Ovary cell line (CHO cell line #1); assay: Supplement screening: process performance (peak VCD and/or harvest titer) by inspectional/statistical analysis
Experimental: as §4, with “guess. Three particular high performance blends were identified for further evaluation: […] The supplements whose relative concentrations supported a distinct pattern of either increasing or decreasing process performance were categorized into the clustered classification. […] These supplements were either compounds or groups of similar compounds such as polyamines, essential amino acids, and vitamins.” for “guess.”

[3] = tested on: recombinant IgG producing Chinese Hamster Ovary cell line (CHO cell line #1); assay: 24-well plate media supplement screening: harvest titer (HPLC, Poros A affinity column)
Experimental: as §1
All 24-well plate screening experiments were designed using JMP7 commercially available statistics software (Cary, N.C.) using custom experimental options. Six individual media supplement screening experiments were performed to test over a hundred different supplements in statistically designed experiments and in a serial fashion. […] Supplement solutions were manually pipetted into the respective plate wells using concentrated, sterile stock solutions. The comprehensive list of media supplements evaluated for cell culture process improvement is shown below in Table 2:
as §2, §3, §4
The aforementioned supplements were evaluated for improvements in cell culture technique performance.

[4] = tested on: recombinant IgG producing Chinese Hamster Ovary cell line (CHO cell line #1); assay: JMP7 statistical identification of high performance media supplementation from a 15-supplement screening experiment
Experimental: as §4
Fifteen of these supplements, or groups of supplements, were screened in a separate statistically designed experiment for the final determination of high performance media blends for the maximization of peak VCD, harvest titer, and both of these variables simultaneously.
The JMP7 statistical software program was further used to identify the high performance media supplementation for maximizing peak VCD, harvest titer, and both simultaneously.

[5] = HTS experiments, CDM #1, relative to unsupplemented control
[6] = univariate analysis of varying supplement concentrations
[7] = range given, variability in culture volumes
[8] = predicted amount for addition into the unsupplemented control media

Row | Compound | Effect on Peak VCD [1, 5] | Effect on Harvest Titer [3, 5] | also measured
1 | OC[C@H]1O[C@H](O[C@H]2[C@H](O)[C@@H](O)C(O)O[C@@H]2CO)[C@H](O)[C@@H](O)[C@@H]1O (mixture of isomers) [Maltose] | No change | Increase | Process Performance Pattern [2, 6]: Wide dispersal
2 | CCCCC/C=C\C/C=C\C/C=C\C/C=C\CCCC(=O)O [Arachidonic acid] | Decrease | Decrease | –
3 | O=C(O)CCCC[C@@H]1SC[C@@H]2NC(=O)N[C@@H]21 [Biotin] | No change | No change | –
4 | C[N+](C)(C)CCO.[Cl-] [Choline chloride] | – | – | Effect on Peak VCD [1]: No change; Process Performance Pattern [2]: Wide dispersal; Effect on Harvest Titer [3]: No change
5 | O=S(=O)([O-])[O-].[Cu+2] [Cupric sulfate] | – | – | Effect on Peak VCD [1]: Increase; Process Performance Pattern [2]: Wide dispersal; Concentration Target (Range) for Increase of Harvest Titer [4]: 0 g/L; Concentration Target (Range) for Increase of Peak VCD [4]: +0.02 g/L; Concentration Target (Range) for Increase of Peak VCD and Harvest Titer [4]: 0 g/L; Effect on Harvest Titer [3]: Decrease
6 | N[C@@H](CSSC[C@H](N)C(=O)O)C(=O)O [Cystine, L-cystine] | Decrease | Decrease | –
7 | O=C(O)CN(CCN(CC(=O)O)CC(=O)O)CC(=O)O [EDTA] | Increase | Decrease | –
8 | NCCO [Ethanolamine] | Increase | Decrease | –
9 | Nc1nc(=O)c2nc(CNc3ccc(C(=O)N[C@@H](CCC(=O)O)C(=O)O)cc3)cnc2[nH]1 [Folate] | – | – | Process Performance Pattern [2, 6]: Wide dispersal
10 | O=C(CO)[C@@H](O)[C@H](O)[C@H](O)CO [Fructose] | No change | No change | –
11 | CC(=O)N[C@H]1C(O)O[C@H](CO)[C@H](O)[C@@H]1O (some centres unmarked) [GalNAc, N-acetylgalactosamine] | No change | Decrease | –
12 | CC(=O)N[C@H]1C(O)O[C@H](CO)[C@@H](O)[C@@H]1O (some centres unmarked) [GlcNAc, N-acetylglucosamine] | Decrease | No change | –
13 | N[C@@H](CCC(=O)N[C@@H](CS)C(=O)NCC(=O)O)C(=O)O [Glutathione, Glutathione, reduced] | Decrease | Decrease | –
14 | C[C@]12CCC(=O)C=C1CC[C@@H]1[C@@H]2[C@@H](O)C[C@@]2(C)[C@H]1CC[C@]2(O)C(=O)CO [Hydrocortisone, reference compound] | No change | Increase | –
15 | O=c1[nH]cnc2nc[nH]c12 [Hypoxanthine] | – | – | Concentration Range for Increase of Harvest Titer [4, 7]: (6.76 × 10^−4-8.68 × 10^−4) g/L; Concentration Range for Increase of Peak VCD and Harvest Titer [4, 7]: (6.76 × 10^−4-8.68 × 10^−4) g/L
16 | C[C@H](N)C(=O)N[C@@H](CCC(N)=O)C(=O)O [L-alanyl-L-glutamine] (H-Ala-Gln-OH) | Increase | No change | –
17 | Cl.N[C@@H](Cc1cnc[nH]1)C(=O)O.O [L-histidine*HCl*H2O] | – | – | Concentration Target (Range) for Increase of Harvest Titer [4, 8]: +0.25 (0.22-0.28) g/L; Concentration Target (Range) for Increase of Peak VCD [4, 8]: +0.21 (0.18-0.23) g/L; Concentration Target (Range) for Increase of Peak VCD and Harvest Titer [4, 8]: +0.25 (0.22-0.28) g/L

Row | Compound | Effect on Peak VCD [1, 5] | Effect on Harvest Titer [3, 5] | also measured
18 | CCCCC/C=C\C/C=C\CCCCCCCC(=O)O [Linoleic acid] | No change | Increase | –
19 | NC(=O)c1cccnc1 [Nicotinamide] | Decrease | No change | –
20 | Nc1ccc(C(=O)O)cc1 [PABA, Para-amino benzoic acid] | Decrease | No change | –
21 | O=P(O)(O)O [Potassium phosphate] | – | – | Effect on Peak VCD [1]: Increase; Process Performance Pattern [2]: Clustered; Concentration Target (Range) for Increase of Harvest Titer [4]: +0.09 (0.08-0.10) g/L; Concentration Target (Range) for Increase of Peak VCD [4]: +0.10 (0.09-0.12) g/L; Concentration Target (Range) for Increase of Peak VCD and Harvest Titer [4]: +0.10 (0.09-0.12) g/L; Effect on Harvest Titer [3]: Decrease
22 | NCCCCN [Putrescine] | Decrease | No change | Concentration Range for Increase of Harvest Titer [4, 7]: ( 1.06 × 10^−4-1.36 × 10^−4) g/L; Concentration Range for Increase of Peak VCD and Harvest Titer [4, 7]: (1.06 × 10^−4-1.36 × 10^−4) g/L
23 | Cc1cc2nc3c(=O)[nH]c(=O)nc-3n(C[C@H](O)[C@H](O)[C@H](O)CO)c2cc1C [Riboflavin] | Decrease | No change | –
24 | CNCC(=O)O [Sarcosine] | No change | Decrease | –
25 | O=C([O-])CC(O)(CC(=O)[O-])C(=O)[O-].[Na+].[Na+].[Na+] [Sodium citrate] | No change | No change | –
26 | CC(=O)C(=O)[O-].[Na+] [Sodium pyruvate] | Decrease | No change | –
27 | NCCCCNCCCN [Spermidine, free base, Spermidine] | – | – | Concentration Range for Increase of Harvest Titer [4, 7]: (4.22 × 10^−5-5.42 × 10^−5) g/L; Concentration Range for Increase of Peak VCD and Harvest Titer [4, 7]: (4.22 × 10^−5-5.42 × 10^−5) g/L
28 | NCCCNCCCCNCCCN [Spermine, free base, Spermine] | – | – | Concentration Range for Increase of Harvest Titer [4, 7]: (8.11 × 10^−5-1.04 × 10^−4) g/L; Concentration Range for Increase of Peak VCD and Harvest Titer [4, 7]: (8.11 × 10^−5-1.04 × 10^−4) g/L
29 | NCCS(=O)(=O)O [Taurine] | Decrease | Decrease | –
30 | Cc1cn([C@H]2C[C@H](O)[C@@H](CO)O2)c(=O)[nH]c1=O [Thymidine] | No change | Decrease | Process Performance Pattern [2, 6]: Wide dispersal; Concentration Range for Increase of Peak VCD [4, 7]: (1.75 × 10^−3-2.25 × 10^−3) g/L
31 | Cc1ncc(CO)c(CO)c1O.Cl [Vitamin B-6, Pyridoxine hydrochloride] | No change | Increase | –
32 | O=C[C@H](O)[C@@H](O)[C@H](O)CO [Xylose] | No change | Increase | Process Performance Pattern [2, 6]: Wide dispersal
33 | Concanavalin A | Decrease | Decrease | –
34 | Cyanocobalamin [Vitamin B-12] | No change | Decrease | –

— patent US9068970B2, “Efficient and effective supplement screening for the development of chemically defined media in cell culture” (Abbvie Inc., priority 2010, dated 2015)
